Columns and labels:
[1] = The drug is tested on Bacteroides caccae strain: ATCC43185 for biotransformation. The drug concentrations were measured before and after a 12-h incubation by liquid-chromatography-coupled mass spectrometry (LC–MS); details: 2 µM
[2] = The drug is tested on Bacteroides ovatus strain: ATCC8483 for biotransformation. The drug concentrations were measured before and after a 12-h incubation by liquid-chromatography-coupled mass spectrometry (LC–MS); details: 2 µM
[3] = The drug is tested on Bacteroides fragilis strain: HMW615 for biotransformation. The drug concentrations were measured before and after a 12-h incubation by liquid-chromatography-coupled mass spectrometry (LC–MS); details: 2 µM
[4] = bacteroides thetaiotaomicron, 12 h, 2 µM
Description: The drug is tested on Bacteroides thetaiotaomicron strain: VPI-5482 for biotransformation. The drug concentrations were measured before and after a 12-h incubation by liquid-chromatography-coupled mass spectrometry (LC–MS)

[5] = The drug is tested on Clostridium scindens strain: ATCC35704 for biotransformation. The drug concentrations were measured before and after a 12-h incubation by liquid-chromatography-coupled mass spectrometry (LC–MS); details: 2 µM
[6] = The drug is tested on Bifidobacterium breve strain: DSM20213 for biotransformation. The drug concentrations were measured before and after a 12-h incubation by liquid-chromatography-coupled mass spectrometry (LC–MS); details: 2 µM
[7] = The drug is tested on Eubacterium ventriosum strain: ATCC27560 for biotransformation. The drug concentrations were measured before and after a 12-h incubation by liquid-chromatography-coupled mass spectrometry (LC–MS); type: ADME; set-up: dose 2 uM, timepoint 0 vs 12 hours; details: 2 µM
[8] = The drug is tested on Parabacteroides merdae strain: ATCC43184 for biotransformation. The drug concentrations were measured before and after a 12-h incubation by liquid-chromatography-coupled mass spectrometry (LC–MS); details: 2 µM
[9] = The drug is tested on Dorea formicigenerans strain: ATCC27755 for biotransformation. The drug concentrations were measured before and after a 12-h incubation by liquid-chromatography-coupled mass spectrometry (LC–MS); details: 2 µM
[10] = The drug is tested on Clostridium symbiosum strain: ATCC14940 for biotransformation. The drug concentrations were measured before and after a 12-h incubation by liquid-chromatography-coupled mass spectrometry (LC–MS); details: 2 µM
[11] = enterocloster bolteae, 12 h, 2 µM
Description: The drug is tested on Clostridium bolteae strain: ATCCBAA-613 for biotransformation. The drug concentrations were measured before and after a 12-h incubation by liquid-chromatography-coupled mass spectrometry (LC–MS)

[12] = The drug is tested on Clostridium ramosum strain: DSM1402 for biotransformation. The drug concentrations were measured before and after a 12-h incubation by liquid-chromatography-coupled mass spectrometry (LC–MS); details: thomasclavelia ramosa, 2 µM
[13] = The drug is tested on Bacteroides finegoldii strain: DSM17565 for biotransformation. The drug concentrations were measured before and after a 12-h incubation by liquid-chromatography-coupled mass spectrometry (LC–MS); details: 2 µM
[14] = The drug is tested on Eubacterium hallii strain: DSM3353 for biotransformation. The drug concentrations were measured before and after a 12-h incubation by liquid-chromatography-coupled mass spectrometry (LC–MS); details: anaerobutyricum hallii, 2 µM
[15] = The drug is tested on Bacteroides fragilis strain: ATCC43859 for biotransformation. The drug concentrations were measured before and after a 12-h incubation by liquid-chromatography-coupled mass spectrometry (LC–MS); details: 2 µM
[16] = The drug is tested on Anaerococcus hydrogenalis strain: DSM7454 for biotransformation. The drug concentrations were measured before and after a 12-h incubation by liquid-chromatography-coupled mass spectrometry (LC–MS); details: 2 µM
[17] = The drug is tested on Blautia hansenii strain: DSM20583 for biotransformation. The drug concentrations were measured before and after a 12-h incubation by liquid-chromatography-coupled mass spectrometry (LC–MS); details: 2 µM
[18] = The drug is tested on Enterococcus faecalis strain: V583 for biotransformation. The drug concentrations were measured before and after a 12-h incubation by liquid-chromatography-coupled mass spectrometry (LC–MS); details: 2 µM
[19] = bacteroides thetaiotaomicron, 12 h, 2 µM; remark: listed apart in the source
Description: The drug is tested on Bacteroides thetaiotaomicron strain: 7330 for biotransformation. The drug concentrations were measured before and after a 12-h incubation by liquid-chromatography-coupled mass spectrometry (LC–MS)

Row | Bacterial Biotransformation [1] | Bacterial Biotransformation [2] | Bacterial Biotransformation [3] | Bacterial Biotransformation [4] | Bacterial Biotransformation [5] | Bacterial Biotransformation [6] | Bacterial Biotransformation [7] | Bacterial Biotransformation [8] | Bacterial Biotransformation [9] | Bacterial Biotransformation [10] | Bacterial Biotransformation [11] | Bacterial Biotransformation [12] | Bacterial Biotransformation [13] | Bacterial Biotransformation [14] | Bacterial Biotransformation [15] | Bacterial Biotransformation [16] | Bacterial Biotransformation [17] | Bacterial Biotransformation [18] | Bacterial Biotransformation [19] | SMILES
1 | Compound NOT metabolized | Compound NOT metabolized | Compound NOT metabolized | Compound NOT metabolized | Compound NOT metabolized | Compound NOT metabolized | Compound NOT metabolized | Compound NOT metabolized | Compound NOT metabolized | Compound NOT metabolized | Compound NOT metabolized | Compound NOT metabolized | Compound NOT metabolized | Compound NOT metabolized | Compound NOT metabolized | Compound NOT metabolized | Compound NOT metabolized | Compound NOT metabolized | Compound NOT metabolized | CN1CCc2c(c3ccccc3n2Cc2ccccc2)C1.CN1CCc2c(c3ccccc3n2Cc2ccccc2)C1.O=S(=O)(O)c1cccc2c(S(=O)(=O)O)cccc12
2 | Compound NOT metabolized | Compound metabolized | Compound metabolized | – | Compound metabolized | Compound NOT metabolized | Compound NOT metabolized | Compound NOT metabolized | Compound NOT metabolized | Compound NOT metabolized | Compound NOT metabolized | Compound NOT metabolized | Compound NOT metabolized | Compound NOT metabolized | Compound metabolized | Compound NOT metabolized | Compound metabolized | Compound NOT metabolized | Compound metabolized | CC(=O)O[C@]1(C(C)=O)CC[C@H]2[C@@H]3C=C(Cl)C4=CC(=O)[C@@H]5C[C@@H]5[C@]4(C)[C@H]3CC[C@@]21C [CYPROTERONE ACETATE]
3 | Compound metabolized | Compound metabolized | Compound metabolized | Compound metabolized | Compound NOT metabolized | Compound NOT metabolized | Compound NOT metabolized | Compound metabolized | Compound NOT metabolized | Compound metabolized | Compound metabolized | – | Compound metabolized | Compound NOT metabolized | Compound metabolized | Compound NOT metabolized | Compound metabolized | Compound NOT metabolized | Compound metabolized | CC(=O)OCC(=O)[C@@]1(OC(C)=O)[C@@H](C)C[C@H]2[C@@H]3C[C@H](F)C4=CC(=O)C=C[C@]4(C)[C@@]3(F)[C@@H](O)C[C@@]21C [DIFLORASONE DIACETATE]
4 | Compound NOT metabolized | Compound NOT metabolized | Compound NOT metabolized | Compound NOT metabolized | Compound NOT metabolized | Compound NOT metabolized | – | Compound NOT metabolized | Compound NOT metabolized | Compound NOT metabolized | Compound NOT metabolized | – | Compound NOT metabolized | Compound NOT metabolized | Compound NOT metabolized | Compound NOT metabolized | Compound NOT metabolized | Compound NOT metabolized | Compound NOT metabolized | CC(C)(C(=O)O)c1ccc(C(O)CCCN2CCC(C(O)(c3ccccc3)c3ccccc3)CC2)cc1 (centres undefined) [FEXOFENADINE]
5 | Compound NOT metabolized | Compound NOT metabolized | Compound NOT metabolized | Compound NOT metabolized | – | Compound NOT metabolized | Compound NOT metabolized | Compound NOT metabolized | Compound NOT metabolized | Compound NOT metabolized | Compound NOT metabolized | Compound NOT metabolized | Compound NOT metabolized | Compound NOT metabolized | Compound NOT metabolized | – | Compound NOT metabolized | Compound NOT metabolized | Compound NOT metabolized | COc1ccccc1OCC(O)COC(N)=O (centres undefined) [METHOCARBAMOL]
6 | Compound NOT metabolized | Compound NOT metabolized | Compound NOT metabolized | Compound NOT metabolized | Compound NOT metabolized | Compound NOT metabolized | – | Compound NOT metabolized | Compound NOT metabolized | Compound NOT metabolized | – | – | Compound NOT metabolized | Compound NOT metabolized | Compound NOT metabolized | Compound NOT metabolized | Compound metabolized | Compound NOT metabolized | Compound NOT metabolized | Cc1ccccc1C(OCCN(C)C)c1ccccc1.O=C(O)CC(O)(CC(=O)O)C(=O)O (centres undefined) [ORPHENADRINE CITRATE]

Row | SMILES | Bacterial Biotransformation [1] | Bacterial Biotransformation [2] | Bacterial Biotransformation [3] | Bacterial Biotransformation [4] | Bacterial Biotransformation [5] | Bacterial Biotransformation [6] | Bacterial Biotransformation [7] | Bacterial Biotransformation [8] | Bacterial Biotransformation [9] | Bacterial Biotransformation [10] | Bacterial Biotransformation [11] | Bacterial Biotransformation [12] | Bacterial Biotransformation [13] | Bacterial Biotransformation [14] | Bacterial Biotransformation [15] | Bacterial Biotransformation [16] | Bacterial Biotransformation [17] | Bacterial Biotransformation [18] | Bacterial Biotransformation [19]
7 | OCCN1CCN(CCCN2c3ccccc3Sc3ccc(C(F)(F)F)cc32)CC1 [FLUPHENAZINE] | Compound metabolized | Compound NOT metabolized | Compound NOT metabolized | Compound metabolized | Compound NOT metabolized | Compound NOT metabolized | Compound metabolized | Compound NOT metabolized | Compound metabolized | – | Compound NOT metabolized | Compound metabolized | Compound metabolized | Compound metabolized | Compound NOT metabolized | Compound NOT metabolized | Compound NOT metabolized | Compound NOT metabolized | Compound metabolized
8 | COCCCC/C(=N\OCCN)c1ccc(C(F)(F)F)cc1.O=C(O)/C=C\C(=O)O [FLUVOXAMINE MALEATE] | Compound NOT metabolized | Compound metabolized | Compound NOT metabolized | Compound metabolized | Compound NOT metabolized | Compound NOT metabolized | Compound NOT metabolized | – | Compound NOT metabolized | Compound NOT metabolized | – | – | Compound NOT metabolized | Compound NOT metabolized | Compound NOT metabolized | Compound NOT metabolized | Compound metabolized | Compound NOT metabolized | Compound metabolized

Reference: ChEMBL document CHEMBL5303573, “Mapping human microbiome drug metabolism by gut bacteria and their genes” (Nature, 2019)
